# Laboratory results taken from US8741871B2, “Trehalose compound, method for producing same, and pharmaceutical product containing the compound” (priority 2008, dated 2014).
# Legend:
# [1] = system: Welch bacillus (C. perfringens Type-A NCTC8237); format: in vivo; details: pre-administration 100 μg/mouse i.p., twenty-four hours later 5.0×10^7 CFU/mL Welch bacillus i.p.; FIG. 16
# THP-1 cells [2] = experiment: Analysis of cytotoxicity to THP-1 cells using trypan blue; format: cell-based, human; details: treated for 2 hours and for 24 hours; FIG. 10
# Protocol: The cultured THP-1 cells were transferred into a 50-ml centrifuge tube in a clean bench. The cells were then centrifuged at 1,000 rpm for 5 minutes at 20° C., and the supernatant was then removed. […] 10 μl of this cell suspension was added to a sterile Eppendorf tube, to which 990 μl of serum-free RPMI 1640 medium had previously been added, so that the solution was 100-fold diluted. The number of cells in 10 μl of the 100-fold diluted solution was counted with a blood cell counter, and the cell suspension was diluted with serum-free RPMI 1640 medium to a cell density of 1×10^7 cells/ml.
# A test compound (Example 9)/DMSO solution, or DMSO was added to 100 μl of RPMI medium to a concentration of 200 μM. Thereafter, ultrasonic wave was applied to the mixture for 5 seconds. It is to be noted that a test compound, 6-O-(2-decyldecanoyl)-α-glucose (hereinafter referred to as a “control compound B”), and TDCM were used to prepare positive controls in the same manner as described above. In addition, a negative control was prepared by adding no test compounds (vehicle). […] Subsequently, 20 μl of 0.3% trypan blue/PBS (−) was added to the reaction solution so as to suspend the reaction solution therein, and thereafter, the survival rate of the cells was immediately analyzed using a cell number measuring apparatus (CYRORECON).
# Pseudomonas aeruginosa = format: in vivo; details: 100 μg/mouse i.p., twenty-four hours later infection; blood fifteen hours after bacteria; FIG. 19
# Protocol: Twenty-four hours later, the mice were infected with 3.0×10^10 CFU/mL Pseudomonas aeruginosa. Fifteen hours after administration of the bacteria, blood was collected from the heart using an injection with a needle tip containing a small amount of heparin, and 200 μL of whole blood was then inoculated on a common agar medium. Thereafter, it was incubated in an incubator for 16 hours. Subsequently, the number of colonies on the medium was counted.
# When there were a large number of cells, whole blood was diluted with a normal saline solution by a factor of 10, 100, 1000 or 10000, and the thus diluted solution was inoculated on a common agar medium.
# THP-1 cells [3] = experiment: Release of cytokine (MIP-1β, TNF-α) from THP-1 cells (ELISA); format: cell-based, human; details: 100 μM test compound, 2 hours, FIG. 9; for release level of TNF-α from THP-1 cells compared with the negative control: negative control vehicle; for release level of MIP-1β from THP-1 cells compared with the positive control: positive controls control compound A and TDCM
# [4] = system: breast cancer cells (FM3A cells); format: in vivo; details: 100 μg/mouse i.p. twenty-four hours before FM3A inoculation, nineteen days later
# Protocol: The 100 μg/mouse test compound obtained in Example 9 (emulsion solution) was intraperitoneally administered to each mouse, and twenty-four hours later, breast cancer cells (FM3A cells) were inoculated into the abdominal cavity thereof. Nineteen days later, the body weight of each mouse was measured. In addition, the tissue sections of diaphragm, pancreas and testis were subjected to HE staining, and they were then observed under a microscope. As a result, the body weight of the breast cancer cell-inoculated mouse was increased by approximately 10 g, when compared with a control mouse, and it was observed that the mouse contained a large amount of ascites fluid.
# rabbit neutrophils = experiment: Measurement of amount of active oxygen released from rabbit neutrophils; format: cell-based; details: 50 μM, 2 hours; FIG. 3
# Protocol: 5 ml of the ACD solution was placed in a 20-ml syringe (injection needle [Nipro]), so that the inside of the syringe was entirely rinsed therewith. 20 ml of blood was collected from the central auricular artery of a rabbit using the syringe, and the collected blood was gently shaken upside down. Thereafter, the blood was dispensed into three centrifuge tubes (15 ml type; Falcon), and each tube was then subjected to centrifugation at 4° C. at 1,500 rpm for 5 minutes. Thereafter, the supernatant was recovered into a centrifuge tube (50 ml type; Falcon). A 1.2% dextran-PBS solution was added to the recovered supernatant in an amount equal the supernatant, and the obtained mixture was then gently shaken upside down. Thereafter, the mixture was left at a room temperature for 30 minutes or more. The emergence of an interface was confirmed, and the supernatant was placed in a new centrifuge tube (50 ml type; Falcon). […]
# The influence of the test compound on the release of active oxygen from rabbit neutrophils was measured by the following procedures.
# Neutrophils (1.0×10^5 cells/100 μl) were plated on a 96-well plate (Falcon). […] The obtained mixture was incubated at 37° C. for 2 hours, and the amount of active oxygen released was measured using a fluorescence measurement apparatus (Ex: 485 nm, Em: 535 nm).
SMILES,lethality of Welch bacillus-infected mice [1],"cytotoxicity to THP-1 cells (survival rate, trypan blue staining) (THP-1 cells [2])",Pseudomonas aeruginosa cells in mouse blood (colonies) (Pseudomonas aeruginosa),release level of TNF-α from THP-1 cells compared with the negative control (THP-1 cells [3]),release level of MIP-1β from THP-1 cells compared with the positive control (THP-1 cells [3]),body weight of breast cancer cell-inoculated mouse [4],"infiltration and metastasis of the cancer cells into various organs (diaphragm, pancreas, testis) ([4]; HE staining, FIG. 20)","action to activate the release of active oxygen from rabbit neutrophils, compared with TDCM (rabbit neutrophils)"
"CCCCCCCCCC(CCCCCCCCC)CC(=O)OCC1O[C@H](O[C@H]2OC(COC(=O)CC(CCCCCCCCC)CCCCCCCCC)[C@@H](O)C(O)C2O)C(O)C(O)[C@@H]1O (stereo partly drawn) [Example 9, 6,6′-bis-O-(3-nonyldodecanoyl)-α,α′-trehalose]",significantly suppressed,cytotoxicity was not observed,not detected,almost equivalent to,8 to 10 times,equivalent to that of a control mouse,not observed at all,
"CCCCCCCCCCC(CCCCCCCCCC)C(=O)OCC1O[C@H](O[C@H]2OC(COC(=O)C(CCCCCCCCCC)CCCCCCCCCC)[C@@H](O)C(O)C2O)C(O)C(O)[C@@H]1O (stereo partly drawn) [Example 1, 6,6′-bis-O-(2-decyldodecanoyl)-α,α′-trehalose]",,significant results could be obtained,,almost equivalent to,higher than,,,approximately two times higher than the activity of TDCM
